The text below walks through data of patent publication EP2404925A1, “New all trans platinum (IV) complexes, their preparation and their use as antitumor agents” (Universidad Autónoma de Madrid, priority 2010, dated 2012).

In general, pIC50 refers to the IC50 on a negative log10 scale, so that one unit is a factor of ten.

Data set [1] relates to NCI-H460. Kind of data set: In vitro antiproliferative assay (14C-thymidine uptake), H460 cells. Type of data set: cell-based, human. Conditions: 72 h incubation, then 14C-thymidine uptake recorded 24 h later. The protocol: (§1) • CCRF-CEM is a human T-cell leukemia cell line (DSMZ ref ACC 240), established in 1964 from peripheral blood of young child bearing a terminal-stage ALL (Foley et al., Cancer 18: 522-529 (1965)). • NCI-H460 is a human epidermoïd lung tumour cell line, obtained from the NCI (NCI-Frederick. Tumor Bank). • MX1 is a human mammary carcinoma tumour, harbouring BRCA1 mutation, obtained from NCI (NCI-Frederick. Tumor Bank).
(§2) Tumour cells were grown in appropriate culture medium, either RPMI-1640 or DMEM, complemented with 10% calf-fetal serum and antibiotics.
(§3) Cell proliferation was evaluated by ^14C-thymidine uptake in DNA. Exponentially growing cells - from 5.10^3 to 10^4 per well in 180 µL culture medium - were introduced in a 96-wells microtitration Cytostar-T apparatus (GE Healthcare Bio-Sciences, Uppsala, Sweden). After 4 hours pre-incubation under CO2 atmosphere at 37°C, compounds were added in 10 µL volume. After incubation for an additional 72 hours period, 0.1 µCi ^14C-thymidine was added in each well, C^14 -thymidine uptake was recorded 24 hours later on a scintillation counter (Perkin-Elmer Life Sciences, Boston, MA, USA). IC50, defined as the dose which inhibits 50% of cell proliferation, were thus determined.

In data set [2] the test system is CCRF-CEM. The data set is described as follows: In vitro antiproliferative assay (14C-thymidine uptake), CEM cells. Type of data set: cell-based, human. Conditions: 72 h incubation, then 14C-thymidine uptake recorded 24 h later. The protocol: as §1, §2, §3
A short description of data set [3]: Toxicity (body weight loss, drug deaths) in the MX1 tumor model study. The format is in vivo, SCID mice. The protocol:
(§4) 7 to 8 weeks-old female SCID mice, obtained from Charles River (L'Arbresle, Lyon , France) were acclimated for at least 1 week previous experiment.
(§5) When ΔT/ΔC values are negative, the percentage of regression is evaluated. A Partial regression (PR) is defined as a decrease in tumor volume greater than or equal to 50% of the tumor volume at start of treatment. A Complete regression (CR) is defined as a decrease in tumor volume below the limit of palpation (T=10mm^3). At the end of the study, the number of tumor free survivor (TFS) which correspond to mice without any detectable tumor is determined. Both drug-related deaths and maximum percent relative mean net body weight loss are also determined. A body weight loss (mean of group) of greater than 15% for more than 3 consecutive days or 20% weight loss for one day or 10% drug deaths are considered to indicate an excessively toxic dosage.

Data set [4] concerns MX1 tumor. The data set is described as follows: In vivo antitumor evaluation in MX1 tumor model. On the set-up: species or system SCID mice. The conditions noted are these: for SRI activity rating: day 10 to day 15 post tumor implantation.
Text: as §1, §4
Animals, placed under normal light cycle, had then ad libitum access to food and water. MX1 cells, 10^7 cells per mouse initially grown in RPMI medium supplemented with 10% foetal-calf serum and antibiotics, were subcutaneously implanted in mice. When […] tumour volume was reached, fragments (2-3 mm diameter) were cut, placed in phosphate buffer (PBS), bilaterally implanted and further passaged in mice until tumour growth rate is stable, before starting the experiment. Tumors were measured with a caliper twice weekly until the tumor reached 2000 mm^3 or until the animal died (which ever come first). Tumor volumes were estimated from 2 dimensional measurements: Volume (in mm^3) = (a x b^2)/2, where a and b are the tumor length and width (mm) respectively. The variation from the baseline of the tumoral volume is calculated in the treated and control group. These values are used to calculate the median in the treated group (ΔT) and in the control group (ΔC). ΔT/ΔC, expressed as a percentage, is the ratio of median at a chosen day (the last day before it becomes necessary to sacrifice control mice owing to tumor size). ΔT/ΔC values can be translated into an activity rating, according to the Southern Research Institute (SRI) criteria:
as §5

Where [5] appears, read: i.v. daily during 5 days at 5 mg/kg.
Setting [6] is: i.v. daily during 5 days at 10 mg/kg.
[7] abbreviates: i.v. daily during 5 days at 5 mg/kg (25 mg/kg total dose).
The mark [8] stands for this setting: i.v. daily during 5 days at 10 mg/kg (50 mg/kg total dose).

pIC50: −log10 of the molar value. Where only a bound is given, the exact number is not on record here.

For `CC(=O)[O][Pt]([NH2])([Cl])([Cl])([NH]C1CCCCC1)[O]C(C)=O` [satraplatin, reference compound], the negative logarithm of the IC50 (pIC50) in data set [1] was 6.72; in data set [2], 6.40.

Consider “Trans-trans-trans-{PtCl2(OH)2(dimethylamine)[(exo)-2- norbornylamine]} [EXAMPLE 3]”, for which the negative logarithm of the IC50 (pIC50) in data set [1] was 6.50; in data set [2], 7.51.

In the case of “Trans-trans-trans-{PtCl2(OH)2(isopropylamine)[(rac)-(endo)-norbornylamine]} [EXAMPLE 2]”, the pIC50 in data set [1] is 6.59; in data set [2], 7.60.

In the case of “Trans-trans-trans-{PtCl2(OH)2(isopropylamine)[(rac)-(exo)-norbornylamine]} [EXAMPLE 1]”, the negative-log IC50 (pIC50) in data set [1] is 6.27; in data set [2] it was 7.28. The toxicity for mice entry in data set [3] (20 mg/kg) is “toxic”. In addition, the deaths in data set [3] (20 mg/kg, deaths on days 17, 19, 20, 21 and 24 (2 mice)) is listed as 6/6. For the same molecule, the body weight loss amounted to 4% in data set [3] (setting [5]) and 12% in data set [3] (setting [6]). Moreover, the drug death entry in data set [3] (setting [5]) and in data set [3] (setting [6]) was “no drug death” each time. The molecule further gave a maximal tolerated dose in data set [3] (i.v., daily for 5 days schedule) of 10 mg/kg. Moreover, the “CR (complete regression)” value in data set [4] (setting [5]) and in data set [4] (setting [6]) was 100% each time. In addition, the ΔT/ΔC in data set [4] (setting [7]) and in data set [4] (setting [8]) was under 0% each time. Further, the SRI activity rating result in data set [4] (setting [7]) and in data set [4] (setting [8]) was “highly active” each time. For the same molecule, the “TFS (tumor free survivor) at the end of the study” value in data set [4] (setting [6]) came out at 2.

With `O=C1[O][Pt]2([NH][C@@H]3CCCC[C@H]3[NH]2)[O]C1=O` [oxaliplatin, reference compound], the negative-log IC50 (pIC50) in data set [1] was 5.62; in data set [2], 5.40.

In the case of `N.N.[Cl][Pt][Cl]` [cisplatin, reference compound], the pIC50 in data set [1] is 5.40 to 5.59; in data set [2], 6.10 to 6.40.
